Patent publication US7750184B2, “Vitamin D receptor modulators” (Eli Lilly and Company, priority 2003, dated 2010)
pEC50, pIC50: −log10 of the molar value.

Tests used:
VDR = biological target: T1, VDR (Homo sapiens, UniProt P11473); experiment: Caco-2 cell co-transfection assay (VDR CTF); format: cell-based; conditions: Caco-2 cells, pGal4-VDR-LBD co-transfection, luciferase reporter
T1 construct: the receptor expression vector pGal4-VDR-LBD (10 ng); expressed in transfected cells; host or cells: Caco-2 cells
T1 sequence (P11473 127-423 limits assumed): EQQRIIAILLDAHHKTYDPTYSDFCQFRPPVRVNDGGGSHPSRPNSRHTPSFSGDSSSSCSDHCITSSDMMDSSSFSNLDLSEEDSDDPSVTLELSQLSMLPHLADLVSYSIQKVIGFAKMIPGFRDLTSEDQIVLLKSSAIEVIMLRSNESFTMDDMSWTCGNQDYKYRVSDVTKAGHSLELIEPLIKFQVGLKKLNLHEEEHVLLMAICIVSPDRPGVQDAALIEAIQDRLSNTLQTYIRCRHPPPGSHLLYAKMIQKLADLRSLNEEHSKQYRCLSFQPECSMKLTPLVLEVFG
Method: 2. The Caco-2 Cell Co-Transfection Assay:
The Caco-2 cell assay is an indicator for the undesirable condition of hypercalcemia. This co-transfection assay is a surrogate assay for in vivo calcemic activity of VDR ligands. […] Preferred assay results are greater than 1000 nM.
(2) Materials and Method for The Caco-2 Cell Assay:
Caco-2 cells, grown in phenol red free, DMEM (Invitrogen, Carlsbad, Calif.) containing 10% charcoal-stripped FCS (Hyclone, Logan, Utah), were transfected with Fugene 6 reagent (Roche Diagnostics, Indianapolis, Ind.). Cells (5000/well) were plated 18 h before transfection in a 96 well plate. The Cells were transfected with Gal4-responsive reporter pFRLuc (150 ng, Stratagene, La Jolla Calif.) and the receptor expression vector pGal4-VDR-LBD (10 ng), along with Fugene 6 reagent (0.2 μl/well). The DNA-Fugene complex was formed by incubating the mixture for 30 min at room temperature. The cells were transfected in triplicate for 5 h, and treated with various concentrations of VDR ligands (form 0.01 nM to 10,000 nM concentration range) 18 h post-transfection. The luciferase activity was quantified using Steady-Glo reagent kit (Promega, Madison, Wis.) as per manufacturer's specifications.

RXR-VDR heterodimer = biological target: T2, RXR-VDR heterodimer (Homo sapiens, UniProt P11473); experiment: RXR-VDR heterodimerization assay (SaOS-2 cells); format: cell-based; conditions: Gal4-RXR-DEF / VP16-VDR-LBD, luciferase reporter
T2 construct: Add the Gal4-RXR-DEF and VP16-VDR-LBD; expressed in transfected cells; host or cells: SaOS-2 cells
T2 sequence (P11473 127-423 limits assumed): T1 sequence (P11473 127-423 limits assumed)
T2 sequence (P19793 201-462 partner limits assumed): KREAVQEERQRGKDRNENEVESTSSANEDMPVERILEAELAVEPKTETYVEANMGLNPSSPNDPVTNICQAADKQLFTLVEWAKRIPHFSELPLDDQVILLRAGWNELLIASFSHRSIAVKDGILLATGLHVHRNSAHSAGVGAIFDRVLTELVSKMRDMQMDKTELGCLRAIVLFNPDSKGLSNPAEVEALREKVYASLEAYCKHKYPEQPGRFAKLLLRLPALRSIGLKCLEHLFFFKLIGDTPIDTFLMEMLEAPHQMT
From the text: 1. The RXR-VDR heterodimer Assay:
This assay provides the VDR activity of a test compound.
(1) Materials and Method for RXR-VDR Heterodimerization Assay:
Luciferase Assay Reagent: • Use Steady-Glo Luciferase Reagent from Promega (Cat # E2550) Consists of:
Add plain DMEM media to tubes for mixing the DNA
Add the Reporter gene pFR-LUC
Add the Gal4-RXR-DEF and VP16-VDR-LBD
Make a stock solution of the compounds in DMSO
Further dilute in D-MEM (Low Glucose—With out Phenol Red)
Read the plates after drug treatment
Add Steady-Glo Luciferase Reagent mixture/wells
Count each well using a Luminescence counter, Top Count NXT by Packard

rat osteocalcin promoter = experiment: OCN (osteocalcin) promoter assay; format: cell-based; conditions: RG-15 (ROS 17/2.8) cells, 48 hr treatment, luciferase reporter
Method: 3. The OCN (osteocalcin) Promoter Assay
The OCN Promoter Assay is an indicator and marker for osteoporosis. […] Preferred assay results are less than 50 nM.
(3) Materials and Method for the OCN Promoter Assay:
The activation of osteocalcin by VDR ligands was evaluated in a rat osteoblast-like cell line RG-15 (ROS 17/2.8) stably expressing rat osteocalcin promoter fused with luciferase reporter gene. […] Confluent RG-15 cells maintained in DMEM/F-12 medium (3:1) containing 5% FBS, 300 μg/ml G418 and at 37° C. under 5% CO2/95% air atmosphere were trypsinized (0.25% trypsin) and plated into white opaque 96-well cell culture plates (25000 cells/well). After 24 hr, cells (in DMEM/F-12 medium+2% FBS) were treated with various concentrations of compounds, dissolved in DMSO. The final DMSO concentration remained at 0.01% (v/v). After 48 hr treatment, the medium was removed, cells were lysed with 50 μl of lysis buffer (From Luciferase reporter assay system, Roche Diagnostics, Indianapolis, Ind.) and assayed for luciferase activity using the Luciferase Reporter Gene Assay kit from Boehringer Mannheim as per manufacturer's specifications.

KERtr cells = experiment: Keratinocyte proliferation assay; format: cell-based; conditions: Homo sapiens, 72 hr, BrdU incorporation, read-out: Kera. Prolif. IC50
Method: 5. The Keratinocte Proliferation Assay
This Assay is indicative for the treatment of psoriasis.
(5) The Keratinocyte Proliferation Assay:
KERtr cells (Human skin keratinocyte transformed with a retrovirus vector, obtained from ATCC) were plated in 96-well flat-bottomed plates (3000 cells/well) in 100 µl keratinocyte serum free medium supplemented with bovine pituitary extract in the absence of EGF (Life Technologies, Rockville, Md.) and incubated at 37° C. for two days. The cells were treated with various concentrations of VDR ligands (ten-fold serial dilution from 10,000 nM to 0.1 nM in triplicate), dissolved in 100 μl keratinocyte serum free medium supplemented with bovine pituitary extract in the absence of EGF and incubated at 37° C. for 72 hr. BrdU (5-bromo-2′-deoxyuridine) incorporation was analyzed as a measure of DNA replication (Cell proliferation ELISA kit, Roche Diagnostics, Indianapolis, Ind.) and absorbance was measured at 405 nm. Potency values (IC50) values were determined as the concentration (nM) of compound that elicited a half-maximal response.

[1] = Mouse hypercalcemia assay; conditions: oral gavage for 6 days, serum ionized calcium 6 hours after last dosing
Method: The Mouse Hypercalcemia Assay is a six day hypercalcemia test for toxicity and selectivity. Acceptable test results are levels greater than 300 μg/kg/day. Preferred assay results are levels greater than 1000 μg/day.
(4) Materials and Method for the Mouse Hypercalcemia Assay:
Weanling, virus—antibody-free, five to six weeks old female DBF mice (Harlan, Indianapolis, Ind.) are used for all the studies. Animals are allowed to acclimate to local vivarium conditions for 2 days. […] The animals then are divided into groups with 4-5 mice per group. Different doses of test compounds prepared in 10% Ethanol and 90% sesame oil are administered to mice orally via gavage for 6 days. 1α-25(OH)2D3 0.5 μg/kg/d was also given to one group of mice as the positive control. […] Raw data of group differences is assessed by analysis of variance (ANOVA) using Fisher's protected least significant difference (PLSD) where the significance level was P<0.05.

SMILES | EC50 (VDR) [nM] | pEC50 (RXR-VDR heterodimer) | pEC50 (rat osteocalcin promoter; Rattus norvegicus, 48 h) | pEC50 (rat osteocalcin promoter) | pIC50 (KERtr cells) | Mouse Hypercal [1] [µg/kg/day]
CCC(CC)(c1ccc(OC[C@H](O)C(C)(C)C)c(C)c1)c1ccc(OS(C)(=O)=O)c(C)c1 [Ex. 1, 3′-[4-(2-hydroxy-3,3-dimethylbutoxy)-3-methylphenyl]-3′-[4-(methanesulfonyloxy)-3-methylphenyl]pentane] | 118 | 8.47 | 8.57 | – | – | –
CCC(CC)(c1ccc(OC[C@@](C)(O)C(C)(C)C)c(C)c1)c1ccc(OS(=O)(=O)C(F)(F)F)c(C)c1 (stereo in doubt) [Ex. 35, trifluoro-methanesulfonic acid 4-{1-ethyl-1-[4-(2-hydroxy-2,3,3-trimethyl-butoxy)-3-methyl-phenyl]-propyl}-2-methyl-phenyl ester] | 616 | 6.86 | 7.70 | – | – | –
CCC(CC)(c1ccc(OS(C)(=O)=O)cc1)c1ccc(OCC(O)C(C)(C)C)c(Cl)c1 (single isomer, unassigned) [Ex. 44, 3′-[3-chloro-4-(2-hydroxy-3,3-dimethylbutoxy)phenyl]-3′-(4-methylsulfonyloxyphenyl)pentane] | 86.6 | 8.66 | – | 8.62 | – | –
CCC(CC)(c1ccc(NS(C)(=O)=O)c(C)c1)c1ccc(OCC(=O)C(C)(C)C)c(C)c1 [Ex. 17, N-(4-{1-[4-(3,3-Dimethyl-2-oxo-butoxy)-3-methyl-phenyl]-1-ethyl-propyl}-2-methyl-phenyl)-methanesulfonamide] | – | – | 8.43 | – | 8.70 | –
CCC(CC)(c1ccc(OS(C)(=O)=O)cc1)c1ccc(OCC(O)C(C)(C)C)c(Cl)c1 (racemic) [Ex. 43, 51, 3′-[3-chloro-4-(2-hydroxy-3,3-dimethylbutoxy)phenyl]-3′-(4-methylsulfonyloxyphenyl)pentane] | – | – | 8.12 | – | 8.40 | –
CCC(CC)(c1ccc(OCC(O)C(C)(C)C)c(C)c1)c1ccc(N(C)S(C)(=O)=O)c(C)c1 (single isomer, unassigned) [Ex. 21, N-(4-{1-ethyl-1-[4-(2-hydroxy-3,3-dimethyl-butoxy)-3-methyl-phenyl]-propyl}-2-methyl-phenyl)-N-methyl-methanesulfonamide] | – | – | – | 6.90 | 7.17 | –
CCC(CC)(c1ccc(OCC(O)C(C)(C)C)c(C)c1)c1ccc(OS(=O)(=O)C(F)(F)F)c(C)c1 (stereo not shown) [Ex. 6, 3′-[4-(2-hydroxy-3,3-dimethylbutoxy)-3-methylphenyl]-3′-[4-(trifluoromethanesulfonyloxy)-3-methylphenyl]pentane] | 1140 | – | 7.95 | – | – | 300
CCC(CC)(c1ccc(NS(=O)(=O)CC)c(C)c1)c1ccc(OCC(=O)C(C)(C)C)c(C)c1 [Ex. 23, N-(4-{1-[4-(3,3-Dimethyl-2-oxo-butoxy)-3-methyl-phenyl]-1-ethyl-propyl}-2-methyl-phenyl)-ethanesulfonamide] | 6.06 | 9.09 | 9.48 | – | – | 500
CCC(CC)(c1ccc(OCC(=O)C(C)(C)C)c(C)c1)c1cc(C)c(OS(C)(=O)=O)c(C)c1 [Ex. 40, 3′-[4-(2-oxo-3,3-dimethylbutoxy)-3-methylphenyl]-3′-[3,5-dimethyl-4-methylsulfonyloxy-phenyl]pentane] | 375 | – | 8.72 | – | – | 300
CCC(CC)(c1ccc(OCC(=O)C(C)(C)C)c(C)c1)c1ccc(OS(=O)(=O)CC(F)(F)F)c(C)c1 [Ex. 7] | 331 | – | 7.08 | – | – | 100
CCC(CC)(c1ccc(OC[C@H](O)C(C)(C)C)c(C)c1)c1ccc(OS(C)(=O)=O)c(C)c1 (single isomer, unassigned) [Ex. 3, 3′-[4-(2-hydroxy-3,3-dimethylbutoxy)-3-methylphenyl]-3′-[4-(methanesulfonyloxy)-3-methylphenyl]pentane] | 133 | – | – | 7.79 | – | 50
CCc1cc(C(CC)(CC)c2ccc(OS(C)(=O)=O)cc2)ccc1OCC(=O)C(C)(C)C [Ex. 39, 3′-[4-(2-oxo-3,3-dimethylbutoxy)-3-ethylphenyl]-3′-[4-methylsulfonyloxy-phenyl]pentane] | 18 | – | 8.75 | – | – | <100
Cc1cc(C2(c3ccc(OCC(=O)C(C)(C)C)c(C)c3)CCCCC2)ccc1OCC(=O)C(C)(C)C [CC, 1-(4-{1-[4-(3,3-Dimethyl-2-oxo-butoxy)-3-methyl-phenyl]-cyclohexyl}-2-methyl-phenoxy)-3,3-dimethyl-butan-2-one, reference compound] | 710000 | – | 5.00 | – | – | >30000
CCC(CC)(c1ccc(OS(=O)(=O)C(F)(F)F)cc1)c1ccc(OCC(=O)C(C)(C)C)c(Cl)c1 [Ex 46, 52, 3′-[3-chloro-4-(2-Oxo-3.3-dimethylbutoxy)]-3′-(4-trifluoromethylsulfonyloxyphenyl)pentane] | – | – | 6.66 | – | 7.05 | –
CCC(CC)(c1ccc(OS(=O)(=O)C(F)(F)F)c(C)c1)c1ccc(OCC(=O)C(C)(C)C)c(Cl)c1 [Ex. 48, 3′-[3-chloro-4-(2-oxo-3.3-dimethylbutoxy)phenyl]-3′-[3-methyl-4-(trifluoromethylsulfonyloxy)phenyl]pentane] | – | – | 7.27 | – | 7.89 | <1000
CCC(CC)(c1ccc(NS(C)(=O)=O)c(C)c1)c1ccc(OCC(O)C(C)(C)C)c(C)c1 (single isomer, unassigned) [Ex. 14, 3′-[4-(2-Hydroxy-3,3-dimethylbutoxy)-3-methylphenyl]-3′-[4-(methanesulfonylamino)-3-methylphenyl]pentane] | 89 | – | 8.01 | – | 8.70 | <300
